Assay results as given in patent publication US10369138B2, “Monobactam organic compounds for the treatment of bacterial infections” (Novartis AG, priority 2014, dated 2019).
Values after ≈ are worked out from the molar mass of the structure shown. Read-outs that look alike come from different tables or passages of the source.

Tests used:
E. coli strain 25922 = assay: MIC by broth microdilution, E. coli strain 25922; format: cell-based
Method: (§1) Bacterial isolates were cultivated from −70° C. frozen stocks by two consecutive overnight passages at 35° C. in ambient air on 5% blood agar (Remel, Lenexa, Kans.). Quality control and P. aeruginosa ATCC 27853) is from the American Type Culture Collection (ATCC; Rockville, Md.) and PAO1 was received from Dr. K. Poole.
Minimal Inhibitory Concentrations (MICs) were determined by the broth microdilution method in accordance with Clinical and Laboratories Institute (CLSI) guidelines. In brief, fresh overnight bacterial cultures were suspended in sterile saline, and adjusted to a 0.5 McFarland turbidity standard. Bacterial suspensions were then diluted in cation adjusted Mueller-Hinton Broth (MHB II; BBL) to yield a final inoculum of approximately 5×10^5 colony-forming units (CFU)/mL. A master plate of antibiotics was prepared at a concentration equivalent to hundred-fold the highest desired final concentration in 100% dimethyl sulfoxide (DMSO). The master antibiotic plate was then diluted by serial twofold dilution with a multichannel pipette. The resulting dilution series of compounds were diluted 1:10 with sterile water leading to a 10% DMSO final concentration. A volume of 10 μL of the drug dilution series was transferred to 96-well assay plates. Assay plates were inoculated with 90 μL of bacterial suspensions and incubated at 35-37° C. for 20 hrs. The assay plates were read using a microtiter plate reader (Molecular Devices) at 600 nm as well as by visual observation with a reading mirror. The lowest concentration of the compound that prevented visible growth was recorded as the MIC. Performance of the assay was monitored by testing aztreonam against laboratory quality control strains in accordance with guidelines of the CLSI.

E. coli containing KPC-2 = assay: MIC by broth microdilution, E. coli containing KPC-2 (Ec KPC2 Iso); format: cell-based; conditions: Escherichia coli, read-out: Ec KPC2 Iso (MIC), E. coli containing KPC-2 (carbapenemase from Klebsiella pneumoniae)
Method: as §1
Strain NB27273 (BW25113 pspB::Km^r) was obtained from the Keio transposon insertion collection. The strain has the pspB gene replaced by a kanamycin resistance marker (BW25113 pspB::Km^r). This strain was cured of the transposon in pspB via FLP recombinase using published methodology. The resulting strain, BW25113 pspB, was used as a host for multicopy vectors expressing key β-lactamases. Multicopy plasmids directing constitutive expression of β-lactamases were established as follows: Synthetic, codon optimized genes encoding E. coli KPC2 and SHV12 β-lactamases were made by DNA2.0 (Palo Alto, Calif.). Each of the synthetic fragments were designed to contain NotI and NcoI restriction sites at their termini, allowing ligation into a NotI/NcoI digested pET28a(+) derivative for protein expression. […] The codon optimized nucleotide sequences and relevant primer recognition information is shown below:
The PCR products were then digested with XhoI and EcoRI and ligated into similarly digested plasmid pAH63-pstS(BlaP). Plasmid pAH63-pstS(BlaP) is a derivative of plasmid pAH63 (J Bacteriol: 183(21): 6384-6393) made by cloning the TEM-1 (bla) promoter and signal peptide encoding region from plasmid pBAD (J Bacteriol. 1995 July 177(14):4121-30) into plasmid pAH63. This fragment was PCR amplified from pBAD using primer pair E192 (ttca[…]) (SEQ ID NO:13) and E194 ([…]) (SEQ ID NO:14), digested with PstI and BamHI and inserted into similarly digested plasmid pAH63. Therefore, expression of β-lactamases from pAH63-pstS(BlaP) based constructs is constitutive and the signal sequence is provided to direct these proteins to the periplasm. Plasmid pAH63 based vectors are used for insertion into the genome in single copy, however, to provide higher expression levels to allow more sensitive detection of the susceptibility of compounds to the β-lactamases, the expression inserts contained in these vectors were moved to the replicative multicopy vector pBAD-Kan (J Bacteriol. 1995 July 177(14):4121-30). To accomplish this, the inserts encompassing the β-lactamase genes, with the associated TEM promoter and signal sequences, were PCR amplified from their corresponding vectors using primer E269 (ccg[…]) (SEQ ID NO:15) and E202 (aatc[…]) (SEQ ID NO:16) for the KPC2 construct and E204 (aatc[…]) (SEQ ID NO:17) for the SHV12 construct. These fragments were then digested with XbaI and EcoRI, and each was inserted into pBAD18-kan that had been digested with the same enzymes to generate a pair of multicopy vectors expressing KPC2 and SHV12 respectively. These vectors were transformed into BW25113 pspB to generate strains NB27273-CDY0033 (expressing KPC2) and NB27273-CDY0030 (expressing SHV12). The pBAD18-kan vector also contains the TEM promoter region and signal sequence, (but lacks any intact β-lactamase genes) and was transformed into BW25113 pspB using standard protocols to generate the control strain NB27273-CDY0026. Expression of the β-lactamases was confirmed by verifying decreased susceptibility to example test antibiotics that are known substrates of KPC2 or SHV12. Susceptibility Testing
Minimal Inhibitory Concentrations (MICs) were determined by the broth microdilution method in accordance with Clinical and Laboratories Institute (CLSI) guidelines. In brief, fresh overnight bacterial cultures were suspended in sterile saline, and adjusted to a 0.5 McFarland turbidity standard. Bacterial suspensions were then diluted in cation adjusted Mueller-Hinton Broth (MHB II; BBL) to yield a final inoculum of approximately 5×10^5 colony-forming units (CFU)/mL. […]

[1] = Escherichia coli, 25922, E. coli strain 25922, read-out: Ec 25922 (MIC)
[2] = Escherichia coli, 25922, read-out: Ec 25922 (MIC)

Compound `CC(C)(O/N=C(\C(=O)N[C@@H]1C(=O)N(S(=O)(=O)O)[C@@H]1Cn1cc(CCN2CCNCC2)nn1)c1csc(N)n1)C(=O)O` [Example 42, 2-(((Z)-(1-(2-aminothiazol-4-yl)-2-oxo-2-(((3S,4R)-2-oxo-4-((4-(2-(piperazin-1-yl)ethyl)-1H-1,2,3-triazol-1-yl)methyl)-1-sulfoazetidin-3-yl)amino)ethylidene)amino)oxy)-2-methylpropanoic acid] has an MIC (E. coli strain 25922; [1]) of 1.4 µg/mL (≈ 2.28 µM) and an MIC (E. coli containing KPC-2) of 2 µg/mL (≈ 3.25 µM).
Work on `CC(C)(O/N=C(\C(=O)N[C@@H]1C(=O)N(S(=O)(=O)O)[C@@H]1Cn1cnc(CN)n1)c1csc(N)n1)C(=O)O` [Example 10, 2-(((Z)-(2-(((2R,3S)-2-((3-(aminomethyl)-1H-1,2,4-triazol-1-yl)methyl)-4-oxo-1-sulfoazetidin-3-yl)amino)-1-(2-aminothiazol-4-yl)-2-oxoethylidene)amino)oxy)-2-methylpropanoic acid] yielded an MIC (E. coli strain 25922; [1]) of 4 µg/mL (≈ 7.53 µM) and an MIC (E. coli containing KPC-2) of 11 µg/mL (≈ 20.7 µM).
`CC(C)(O/N=C(\C(=O)N[C@@H]1C(=O)N(S(=O)(=O)O)[C@@H]1Cn1nnnc1CN)c1csc(N)n1)C(=O)O` [Example 6, 2-(((Z)-(2-(((2R,3S)-2-((5-(aminomethyl)-1H-tetrazol-1-yl)methyl)-4-oxo-1-sulfoazetidin-3-yl)amino)-1-(2-aminothiazol-4-yl)-2-oxoethylidene)amino)oxy)-2-methylpropanoic acid] gave an MIC (E. coli strain 25922; [1]) of 4 µg/mL (≈ 7.51 µM) and an MIC (E. coli containing KPC-2) of 1 µg/mL (≈ 1.88 µM).
Compound `N=C(N)N(CCCN)Cc1cnn(C[C@@H]2[C@H](NC(=O)/C(=N\OC3(C(=O)O)CC3)c3csc(N)n3)C(=O)N2S(=O)(=O)O)n1` [Example 130, 1-(((Z)-(2-(((2R,3S)-2-((4-((1-(3-aminopropyl)guanidino)methyl)-2H-1,2,3-triazol-2-yl)methyl)-4-oxo-1-sulfoazetidin-3-yl)amino)-1-(2-aminothiazol-4-yl)-2-oxoethylidene)amino)oxy)cyclopropanecarboxylic acid] has an MIC (E. coli strain 25922; [1]) of 1 µg/mL (≈ 1.59 µM) and an MIC (E. coli containing KPC-2) of 2 µg/mL (≈ 3.18 µM).
In the case of `NCCCNCc1nnn(C[C@@H]2[C@H](NC(=O)/C(=N\OC3(C(=O)O)CC3)c3csc(N)n3)C(=O)N2S(=O)(=O)O)n1` [Example 96, 1-(((Z)-(2-(((2R,3S)-2-((5-(((3-aminopropyl)amino)methyl)-2H-tetrazol-2-yl)methyl)-4-oxo-1-sulfoazetidin-3-yl)amino)-1-(2-aminothiazol-4-yl)-2-oxoethylidene)amino)oxy)cyclopropanecarboxylic acid], the MIC (E. coli strain 25922; [1]) is reported as 0.25 µg/mL (≈ 0.425 µM) and the MIC (E. coli containing KPC-2) is reported as 1 µg/mL (≈ 1.7 µM).
In the case of `CC(C)(O/N=C(\C(=O)N[C@@H]1C(=O)N(S(=O)(=O)O)[C@@H]1Cn1ncc(COC(N)=O)n1)c1csc(N)n1)C(=O)O` [Example 37, 2-(((Z)-(1-(2-aminothiazol-4-yl)-2-(((2R,3S)-2-((4-((carbamoyloxy)methyl)-2H-1,2,3-triazol-2-yl)methyl)-4-oxo-1-sulfoazetidin-3-yl)amino)-2-oxoethylidene)amino)oxy)-2-methylpropanoic acid], the MIC (E. coli strain 25922; [1]) is reported as 2 µg/mL (≈ 3.47 µM) and the MIC (E. coli containing KPC-2) is reported as 2 µg/mL (≈ 3.47 µM).
`C[C@H](NCCCN)c1cnn(C[C@@H]2[C@H](NC(=O)/C(=N\OC3(C(=O)O)CC3)c3csc(N)n3)C(=O)N2S(=O)(=O)O)n1` [Example 146, 1-(((Z)-(2-(((2R,3S)-2-((4-((S)-1-((3-aminopropyl)amino)ethyl)-2H-1,2,3-triazol-2-yl)methyl)-4-oxo-1-sulfoazetidin-3-yl)amino)-1-(2-aminothiazol-4-yl)-2-oxoethylidene)amino)oxy)cyclopropanecarboxylic acid] showed an MIC (E. coli strain 25922; [1]) of 0.5 µg/mL (≈ 0.832 µM) and an MIC (E. coli containing KPC-2) of 0.5 µg/mL (≈ 0.832 µM).
`NCCNC[C@@H]1CN(C[C@@H]2[C@H](NC(=O)/C(=N\OC3(C(=O)O)CC3)c3csc(N)n3)C(=O)N2S(=O)(=O)O)C(=O)O1` [Example 97, 1-(((Z)-(2-(((2R,3S)-2-(((R)-5-(((2-aminoethyl)amino)methyl)-2-oxooxazolidin-3-yl)methyl)-4-oxo-1-sulfoazetidin-3-yl)amino)-1-(2-aminothiazol-4-yl)-2-oxoethylidene)amino)oxy)cyclopropanecarboxylic acid] gave an MIC (E. coli strain 25922; [2]) of 0.125 µg/mL (≈ 0.212 µM) and an MIC (E. coli containing KPC-2) of 0.125 µg/mL (≈ 0.212 µM).
`N=C(NCc1cnn(C[C@@H]2[C@H](NC(=O)/C(=N\OC3(C(=O)O)CC3)c3csc(N)n3)C(=O)N2S(=O)(=O)O)n1)NC1CCNCC1` [Example 128, 1-(((Z)-(1-(2-aminothiazol-4-yl)-2-oxo-2-(((3S,4R)-2-oxo-4-((4-((3-(piperidin-4-yl)guanidino)methyl)-2H-1,2,3-triazol-2-yl)methyl)-1-sulfoazetidin-3-yl)amino)ethylidene)amino)oxy)cyclopropanecarboxylic acid] gave an MIC (E. coli strain 25922; [1]) of 0.5 µg/mL (≈ 0.764 µM) and an MIC (E. coli containing KPC-2) of 1 µg/mL (≈ 1.53 µM).
`CC(C)(O/N=C(\C(=O)N[C@@H]1C(=O)N(S(=O)(=O)O)[C@@H]1Cn1ncc(COS(=O)(=O)O)n1)c1csc(N)n1)C(=O)O` [Example 38, 2-(((Z)-(1-(2-aminothiazol-4-yl)-2-oxo-2-(((3S,4R)-2-oxo-1-sulfo-4-((4-((sulfooxy)methyl)-2H-1,2,3-triazol-2-yl)methyl)azetidin-3-yl)amino)ethylidene)amino)oxy)-2-methylpropanoic acid] was tested, and the MIC (E. coli strain 25922; [1]) was 8 µg/mL (≈ 13.1 µM) and the MIC (E. coli containing KPC-2) was 4 µg/mL (≈ 6.53 µM).
Work on `NCCCNCc1cnn(C[C@@H]2[C@H](NC(=O)/C(=N\OC3(C(=O)O)CC3)c3nsc(N)n3)C(=O)N2S(=O)(=O)O)n1` [Example 94, (((Z)-(1-(5-amino-1,2,4-thiadiazol-3-yl)-2-(((2R,3S)-2-((4-(((3-aminopropyl)amino)methyl)-2H-1,2,3-triazol-2-yl)methyl)-4-oxo-1-sulfoazetidin-3-yl)amino)-2-oxoethylidene)amino)oxy)cyclopropanecarboxylic acid] yielded an MIC (E. coli strain 25922; [1]) of 0.5 µg/mL (≈ 0.851 µM) and an MIC (E. coli containing KPC-2) of 1 µg/mL (≈ 1.7 µM).
`NCC1CN(C[C@@H]2[C@H](NC(=O)/C(=N\OC3(C(=O)O)CC3)c3csc(N)n3)C(=O)N2S(=O)(=O)O)C(=O)N1` (stereo partly drawn) [Example 122, 1-(((Z)-(2-(((2R,3S)-2-((4-(aminomethyl)-2-oxoimidazolidin-1-yl)methyl)-4-oxo-1-sulfoazetidin-3-yl)amino)-1-(2-aminothiazol-4-yl)-2-oxoethylidene)amino)oxy)cyclopropanecarboxylic acid] was tested, and the MIC (E. coli strain 25922; [1]) was at most 0.06 µg/mL and the MIC (E. coli strain 25922; [2]) was 0.125 µg/mL (≈ 0.229 µM).
Compound `Nc1nc(/C(=N/OC2(C(=O)O)CC2)C(=O)N[C@@H]2C(=O)N(S(=O)(=O)O)[C@@H]2Cn2ncc(CNC3CNC3)n2)cs1` [Example 103, 1-(((Z)-(1-(2-aminothiazol-4-yl)-2-(((2R,3S)-2-((4-((azetidin-3-ylamino)methyl)-2H-1,2,3-triazol-2-yl)methyl)-4-oxo-1-sulfoazetidin-3-yl)amino)-2-oxoethylidene)amino)oxy)cyclopropanecarboxylic acid] has an MIC (E. coli strain 25922; [1]) of 0.25 µg/mL (≈ 0.428 µM).
